Source: ChEMBL document CHEMBL1201862, “PubChem BioAssay data set” (2004)
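Tested at 5 concentrations; 48 h exposure; 96-well plates; endpoints linearly interpolated, else capped at highest concentration. GI50: concentration for 50% inhibition of growth.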 Activity calls are given as the source filed them. No stated cut-off is given here; in the data, active = GI50 up to about 1.1 µM and inactive = higher.

Columns and labels:
Assay in all cases: NCI anticancer screen, dose series, 48 h
CCRF-CEM = system: CCRF-CEM
MOLT-4 = system: MOLT-4
HOP-62 = system: HOP-62
SK-MEL-5 = system: SK-MEL-5
SF-268 = system: SF-268
TK-10 = system: TK-10
OVCAR-5 = system: OVCAR-5
KM12 = system: KM12
SF-539 = system: SF-539
DU-145 = system: DU-145
SR = system: SR
PC-3 = system: PC-3
UO-31 = system: UO-31
UACC-62 = system: UACC-62
SNB-19 = system: SNB-19
HL-60 = system: HL-60
HOP-92 = system: HOP-92
HCC 2998 = system: HCC 2998
A549 = system: A549
HCT-116 = system: HCT-116

Row | SMILES | GI50 (CCRF-CEM) | GI50 (MOLT-4) | GI50 (HOP-62) | GI50 (SK-MEL-5) | GI50 (SF-268) | GI50 (TK-10) | GI50 (OVCAR-5) | GI50 (KM12) | GI50 (SF-539) | GI50 (DU-145) | GI50 (SR) | GI50 (PC-3) | GI50 (UO-31) | GI50 (UACC-62) | GI50 (SNB-19) | GI50 (HL-60) | GI50 (HOP-92) | GI50 (HCC 2998) | GI50 (A549) | GI50 (HCT-116)
1 | COC(=O)Cc1c([C@H]2[C@H](CC(=O)OC)c3ccccc3N2S(=O)(=O)c2ccc(C)cc2)[nH]c2ccccc12 | 18.5 µM (inactive) | 3.4 µM (inactive) | > 100 µM (inactive) | > 100 µM (inactive) | > 100 µM (inactive) | > 100 µM (inactive) | > 100 µM (inactive) | > 56.9 µM (inactive) | > 100 µM (inactive) | > 100 µM (inactive) | 9.33 µM (inactive) | > 100 µM (inactive) | > 100 µM (inactive) | > 100 µM (inactive) | > 100 µM (inactive) | > 100 µM (inactive) | > 100 µM (inactive) | > 100 µM (inactive) | > 100 µM (inactive) | > 100 µM (inactive)
2 | CCOC1(OCC)C2C=CC1C(COS(=O)(=O)c1ccc(C)cc1)C2COS(=O)(=O)c1ccc(C)cc1 (stereo not given) | 20 µM (inactive) | 11.9 µM (inactive) | 45.8 µM (inactive) | 15.2 µM (inactive) | 19.6 µM (inactive) | 41.2 µM (inactive) | 49.4 µM (inactive) | 31.1 µM (inactive) | 41.4 µM (inactive) | 39.8 µM (inactive) | 1.12 µM (inactive) | 11.6 µM (inactive) | 22.8 µM (inactive) | 20.4 µM (inactive) | 33.8 µM (inactive) | 16.9 µM (inactive) | 12.8 µM (inactive) | 38.3 µM (inactive) | 34.6 µM (inactive) | 21.5 µM (inactive)
3 | COC(=O)C1=NN2c3ccccc3CN([C@@H](C)c3ccccc3)C(=O)[C@@H]2[C@H]1c1ccccc1 | > 100 µM (inactive) | 5.66 µM (inactive) | > 100 µM (inactive) | > 100 µM (inactive) | > 100 µM (inactive) | > 100 µM (inactive) | > 100 µM (inactive) | > 100 µM (inactive) | > 100 µM (inactive) | > 100 µM (inactive) | 63 µM (inactive) | 21.3 µM (inactive) | > 100 µM (inactive) | > 100 µM (inactive) | > 100 µM (inactive) | > 100 µM (inactive) | > 100 µM (inactive) | > 100 µM (inactive) | > 100 µM (inactive) | > 100 µM (inactive)
4 | CNC1C(O)C(NC)C2OC3(O)C(=O)CC(C)OC3OC2C1O (stereo not given) | > 100 µM (inactive) | > 100 µM (inactive) | > 100 µM (inactive) | > 100 µM (inactive) | > 100 µM (inactive) | > 100 µM (inactive) | > 100 µM (inactive) | > 100 µM (inactive) | > 100 µM (inactive) | > 100 µM (inactive) | > 100 µM (inactive) | > 100 µM (inactive) | > 100 µM (inactive) | > 100 µM (inactive) | > 100 µM (inactive) | > 100 µM (inactive) | > 100 µM (inactive) | > 100 µM (inactive) | > 100 µM (inactive) | > 100 µM (inactive)
5 | CC1(C)N=C(N)N=C(N)N1c1ccc(OCC(=O)Nc2cccc(S(=O)(=O)F)c2)c(Cl)c1 | 5.37 µM (inactive) | 16.3 µM (inactive) | 31 µM (inactive) | 3.56 µM (inactive) | 4.78 µM (inactive) | 7.24 µM (inactive) | 7.91 µM (inactive) | 17.7 µM (inactive) | 13.2 µM (inactive) | > 25.1 µM (inactive) | 2.85 µM (inactive) | 1.54 µM (inactive) | 78.5 µM (inactive) | 0.676 µM (active) | 7.8 µM (inactive) | 3.75 µM (inactive) | 2.25 µM (inactive) | 19.1 µM (inactive) | 3.52 µM (inactive) | 12.6 µM (inactive)
6 | CC(=O)C1=C(C)N(c2ccccc2)C2(O)C3=C(C(=O)c4ccccc4C3=O)C(O)=CC12Cl (stereo not given) | 0.65 µM (active) | 3.13 µM (inactive) | 17.2 µM (inactive) | 2.91 µM (inactive) | 6.73 µM (inactive) | 14.4 µM (inactive) | 20 µM (inactive) | 4.17 µM (inactive) | 4.09 µM (inactive) | 11.2 µM (inactive) | 2.42 µM (inactive) | 7.28 µM (inactive) | 5.07 µM (inactive) | 13 µM (inactive) | 5.36 µM (inactive) | 2.9 µM (inactive) | 7.08 µM (inactive) | 4.63 µM (inactive) | 7.29 µM (inactive) | 5.96 µM (inactive)
7 | CCN(CC)CCn1ccc(=O)c2cc3c(=O)ccn(CCN(CC)CC)c3c(C)c21 | 1.77 µM (inactive) | 0.525 µM (active) | 7.38 µM (inactive) | 15.7 µM (inactive) | 4.07 µM (inactive) | 7.43 µM (inactive) | 14.1 µM (inactive) | 0.993 µM (active) | 11.2 µM (inactive) | 5.19 µM (inactive) | 1.26 µM (inactive) | 4.79 µM (inactive) | 5.07 µM (inactive) | 15.4 µM (inactive) | 5.15 µM (inactive) | 1.42 µM (inactive) | 7.69 µM (inactive) | 1.44 µM (inactive) | 4.27 µM (inactive) | 1.82 µM (inactive)
8 | CCN(CC)C(=S)N/N=C(/C)c1cccc(/C(C)=N\NC(=S)N(CC)CC)n1 | 0.389 µM (active) | 1.66 µM (inactive) | 1.41 µM (inactive) | 2.13 µM (inactive) | 0.334 µM (active) | 1.27 µM (inactive) | 3.31 µM (inactive) | 0.26 µM (active) | 1.37 µM (inactive) | 0.414 µM (active) | 0.32 µM (active) | 3.15 µM (inactive) | 1.95 µM (inactive) | 2.62 µM (inactive) | 4.39 µM (inactive) | 0.055 µM (active) | 1.46 µM (inactive) | 3.9 µM (inactive) | 2.86 µM (inactive) | 2.8 µM (inactive)
9 | N#Cc1nc(C#N)c(N)[nH]1 | > 100 µM (inactive) | > 100 µM (inactive) | > 100 µM (inactive) | > 100 µM (inactive) | > 100 µM (inactive) | > 100 µM (inactive) | > 100 µM (inactive) | > 100 µM (inactive) | > 100 µM (inactive) | > 100 µM (inactive) | > 100 µM (inactive) | > 100 µM (inactive) | > 100 µM (inactive) | > 100 µM (inactive) | > 100 µM (inactive) | > 100 µM (inactive) | > 100 µM (inactive) | > 100 µM (inactive) | > 100 µM (inactive) | > 100 µM (inactive)
10 | COc1cc(/C=N/N=C2NCCCCN2)ccc1O | > 100 µM (inactive) | > 100 µM (inactive) | > 100 µM (inactive) | 40 µM (inactive) | > 100 µM (inactive) | > 100 µM (inactive) | > 100 µM (inactive) | > 100 µM (inactive) | > 100 µM (inactive) | > 100 µM (inactive) | > 100 µM (inactive) | > 100 µM (inactive) | > 100 µM (inactive) | > 100 µM (inactive) | > 100 µM (inactive) | > 100 µM (inactive) | > 100 µM (inactive) | > 100 µM (inactive) | > 100 µM (inactive) | > 100 µM (inactive)
11 | COC(=O)C1=C(O)C(C(=O)OC)[C@@]2(O)[C@@H](C(=O)OC)C(c3ccc(OC(=O)/C=C/c4ccccc4)cc3)C[C@@H]1[C@@H]2C(=O)OC (stereo not given in full) | 2.68 µM (inactive) | 2.61 µM (inactive) | 23.8 µM (inactive) | 10.6 µM (inactive) | 9.79 µM (inactive) | 6.82 µM (inactive) | 12.1 µM (inactive) | 5.37 µM (inactive) | 3.43 µM (inactive) | 11 µM (inactive) | 3.02 µM (inactive) | 6.84 µM (inactive) | 10.6 µM (inactive) | 4.36 µM (inactive) | 20.6 µM (inactive) | 4.55 µM (inactive) | 29.4 µM (inactive) | 4.89 µM (inactive) | 12.6 µM (inactive) | 4.24 µM (inactive)
12 | CC(=O)Nc1cc2cc(NS(=O)(=O)c3cc(C(F)(F)F)cc(C(F)(F)F)c3)ccc2oc1=O | > 100 µM (inactive) | > 100 µM (inactive) | > 100 µM (inactive) | > 100 µM (inactive) | 32.6 µM (inactive) | > 100 µM (inactive) | > 100 µM (inactive) | > 100 µM (inactive) | 29.4 µM (inactive) | > 100 µM (inactive) | > 100 µM (inactive) | > 100 µM (inactive) | > 100 µM (inactive) | > 100 µM (inactive) | 47.2 µM (inactive) | > 100 µM (inactive) | > 100 µM (inactive) | > 100 µM (inactive) | > 100 µM (inactive) | > 100 µM (inactive)
13 | CNc1ccc2c(c1)Cc1ccccc1-2 | 59.2 µM (inactive) | 17 µM (inactive) | 57.4 µM (inactive) | 26.8 µM (inactive) | 44 µM (inactive) | 36.6 µM (inactive) | 98.6 µM (inactive) | 36.1 µM (inactive) | 32.4 µM (inactive) | 31.9 µM (inactive) | 27 µM (inactive) | 32.7 µM (inactive) | 31.1 µM (inactive) | 26.8 µM (inactive) | 13.6 µM (inactive) | 20.3 µM (inactive) | 21 µM (inactive) | 30.6 µM (inactive) | 22.5 µM (inactive) | 56.2 µM (inactive)
14 | CN(C)CCn1c(=O)c2ccc(NCCNCCO)c3c(=O)c4cc(O)ccc4n(c1=O)c23 | 0.258 µM (active) | 0.229 µM (active) | 0.483 µM (active) | 1.49 µM (inactive) | 0.393 µM (active) | 4.63 µM (inactive) | 1.79 µM (inactive) | 3.57 µM (inactive) | 0.367 µM (active) | 0.875 µM (active) | < 0.0352 µM (active) | 1.69 µM (inactive) | 3.05 µM (inactive) | 1.47 µM (inactive) | 1.04 µM (active) | 1.47 µM (inactive) | 0.61 µM (active) | 0.661 µM (active) | 0.607 µM (active) | 0.664 µM (active)
